The target of data set [1] is T1, Glutamate receptor ionotropic, AMPA (Rattus norvegicus) (UniProt P19491+P19492+P19493+P19490). Description: Positive allosteric modulation at AMPAR in rat primary cortical cells assessed as concentration required for 2 fold increase in AMPA induced current amplitude by FDSS fluorescence assay. The class given is cell-based. The following applies: Primary cortical neuron, filed as positive allosteric modulator.

For data set [2], the target named is Glutamate receptor ionotropic AMPA (Homo sapiens, UniProt P42261+P42262+P42263+P48058). Nature of the data set: Positive allosteric modulation at AMPAR in HEK293 cells expressing GluA2Q assessed as glutamate induced calcium influx. The format is cell-based.
Data set [3] addresses T1, Glutamate receptor ionotropic, AMPA (Rattus norvegicus). Description: Positive allosteric modulation at AMPAR in rat primary cortical cells assessed as concentration required for 2 fold increase in AMPA induced current amplitude by FlipR assay. The format is cell-based. Conditions: Primary cortical neuron, filed as positive allosteric modulator.
Data set [4] shares this target. Nature of the data set: Positive allosteric modulation at AMPAR in rat hippocampal assessed as increase in AMPA induced noradrenaline release. Also on record: concentration or dose not given beside the values.
Data set [5] addresses Glutamate receptor ionotropic AMPA (Homo sapiens) (UniProt P48058+P42263+P42262+P42261). Nature of the data set: Positive allosteric modulation at AMPAR in HEK293 cells expressing GluA2Q assessed as glutamate induced calcium influx relative to control. The class given is cell-based. Conditions: filed as positive allosteric modulator.
The subject of data set [6] is Mus musculus. Nature of the data set: Cognition enhancing effect in CD1 mouse assessed as increase in exploration time for novel object at 3 mg/kg, po after 1 hr by object recognition test (reference value: 40%). The class given is functional.
The next data set relates to Rattus norvegicus. Nature of the data set: Cognition enhancing effect in Wistar rat assessed as increase in long-term potentiation of synaptic response at 10 mg/kg, ip pretreated for 1 hr followed by tetanic stimulation and measured for 3 hrs. The format is functional, organism-based. Conditions: time 4.0 hrs.
In data set [7] the test system is Mus musculus. Description: Cognition enhancing effect in CD1 mouse assessed as increase in exploration time for novel object at 1 mg/kg, po after 1 hr by object recognition test (reference value: 40%). The format is functional.
Data set [8] addresses T1, Glutamate receptor ionotropic, AMPA (Rattus norvegicus). Nature of the data set: Positive allosteric modulation at AMPAR in rat hippocampal assessed as increase in AMPA induced noradrenaline release by measuring concentration required for 2 fold increase in noradrenaline release. Conditions: filed as positive allosteric modulator.
Data set [9] concerns Mus musculus. Nature of the data set: Cognition enhancing effect in C57BL/6 mouse assessed as increase in performance of spontaneous alteration at 0.3 mg/kg, ip after 1 hr by T-maze test. The format is functional, organism-based.
The nature of data set [10]: Toxicity in NMR1 mouse assessed as pro-convulsant effect at 30 mg/kg, po. The class given is organism-based. Conditions: in vivo.
Data set [11] relates to Mus musculus. Description: Cognition enhancing effect in C57BL/6 mouse assessed as increase in performance of spontaneous alteration at 0.1 mg/kg, ip after 1 hr by T-maze test. The format is functional, organism-based.
Data set [12] is described as follows: Toxicity in NMR1 mouse assessed as pro-convulsant effect at 100 mg/kg, po. The class given is organism-based. The following applies: in vivo.
Where [13] appears, read: filed as positive allosteric modulator.

Activity calls are given as the source filed them. The calls are words filed in the database; no cut-off is given here.

`CC1N(C)c2ccc(Cl)cc2S(=O)(=O)N1C` (centres undefined): the values for the EC in [1] and in data set [3] were 0.8 µM and 4.3 µM, respectively. Further, the concentration giving a half-maximal response (EC50) in data set [2] was 81.3 µM. In addition, the Activity in data set [4] (setting [13]) was 112%.
Turning to `CN1CN(C2CC2)c2ccc(F)cc2S1(=O)=O`, the 50% effective concentration (EC50) in [2] was 57.5 µM. Besides, the EC in [3] worked out at 9.3 µM. Further, the Activity in data set [4] is less than 100%.
Turning to `CC1N(C2CC2)c2ccc(Cl)cc2S(=O)(=O)N1CF` (centres undefined), the EC50 in [2] is 2.14 µM. The EC in data set [3] came to 2.5 µM. The Activity in [4] (setting [13]) stood at 329%.
With `O=S1(=O)NCN(C2CC2)c2ccc(Cl)cc21`, the Emax in data set [5] is 100%. The Activity is 79% in the data set on Mus musculus [6], 82% in the data set on Mus musculus [7], 311% in data set [4] (setting [13]) and “Non-Toxic” in [10]. For the same compound, the result in the data set on Rattus norvegicus and in the data set on Mus musculus [9] was Active. In addition, the values for the EC in data set [1], in data set [8] and in data set [3] were 0.7 µM, 4.5 µM and 2.2 µM, respectively. In addition, in data set [2], the EC50 was 0.794 µM.
In the case of `O=S1(=O)c2cc(Cl)ccc2N(C2CC2)CN1CF`, in [5], the Emax was found to be 90%. Besides, the Activity in the data set on Mus musculus [6] was 78%; with Mus musculus [7], 64%; in data set [4] (setting [13]), 394%; in data set [12], “Non-Toxic”; in [10] it was “Non-Toxic”. For the same compound, the result with Rattus norvegicus and with Mus musculus [11] was Active. Moreover, the values for the EC in data set [1], in [8] and in [3] were 1.5 µM, 5 µM and 2.1 µM, respectively. For the same compound, the EC50 in data set [2] is 2.19 µM.
Turning to `CCN1c2ccc(Cl)cc2S(=O)(=O)N(C)C1C` (centres undefined), the EC50 in data set [2] is 31.6 µM. Also, the EC in data set [3] amounted to 6.2 µM. Moreover, the Activity in data set [4] (setting [13]) stood at 103%.
For the compound `O=S1(=O)c2cc(Cl)ccc2N(C2CC2)CN1C(F)F`, the EC in data set [1] came to 6 µM. For the same compound, the 50% effective concentration (EC50) in [2] is more than 100 µM. Moreover, the Activity in data set [4] (setting [13]) was 340%.
For `CC1N(C2CC2)c2ccc(F)cc2S(=O)(=O)N1C` (centres undefined), the 50% effective concentration (EC50) in data set [2] is more than 100 µM. Besides, the EC in [3] amounted to 70.9 µM. Besides, in data set [4], the Activity was less than 100%.
For the compound `O=S1(=O)NCN(C2CC2)c2ccc(F)cc21`, the EC in data set [1] was determined as 0.3 µM; in data set [3], 0.2 µM. In data set [2], the concentration for a half-maximal effect (EC50) was 0.275 µM. Also, the Activity in data set [4] (setting [13]) stood at 230%.
Turning to `CCN1c2ccc(F)cc2S(=O)(=O)N(C)C1C` (centres undefined), the EC in data set [1] was determined as 1.4 µM. Moreover, the concentration giving a half-maximal response (EC50) in data set [2] was 8.71 µM. Also, in [4] (setting [13]), the Activity was determined as 135%.
As to `CCN1c2ccc(Cl)cc2S(=O)(=O)N(CC)C1C` (centres undefined), the EC in data set [1] came out at 12.2 µM. Moreover, the EC50 in data set [2] is more than 100 µM. For the same compound, the Activity in [4] was less than 100%.
Regarding `CN1CN(C2CC2)c2ccc(Cl)cc2S1(=O)=O`, the EC50 in data set [2] was more than 100 µM. The EC in data set [3] is 13.4 µM.
For the compound `O=S1(=O)c2cc(F)ccc2N(C2CC2)CN1C(F)F`, in data set [2], the EC50 is 16.6 µM. The EC in [3] is 6.9 µM. Further, the Activity in data set [4] (setting [13]) amounted to 345%.
On to `CC1N(C)c2ccc(F)cc2S(=O)(=O)N1C` (centres undefined), for which the half-maximal effective concentration (EC50) in data set [2] is 15.1 µM. For the same compound, in data set [3], the EC worked out at 4.1 µM. The Activity in [4] (setting [13]) came out at 167%.
With `CC1N(C2CC2)c2ccc(Cl)cc2S(=O)(=O)N1C` (centres undefined), in [2], the EC50 is more than 100 µM. Besides, the EC in [3] came out at 65 µM. Moreover, the Activity in data set [4] was less than 100%.
Turning to `CCN1C(C)N(C)c2ccc(Cl)cc2S1(=O)=O` (centres undefined), the EC in data set [1] came to 11.2 µM. For the same compound, in data set [2], the 50% effective concentration (EC50) was more than 100 µM. For the same compound, the Activity in [4] is less than 100%.
As to `O=S1(=O)c2cc(F)ccc2N(C2CC2)CN1CF`, the EC50 in [2] is 0.282 µM. In addition, in data set [3], the EC was determined as 0.6 µM. For the same compound, the Activity in data set [4] (setting [13]) was found to be 427%.

As usually defined, the EC50 is the concentration giving half of the maximal effect. For orientation: Emax means the size of the effect at its maximum, as opposed to the concentration needed.
